Results reported in ChEMBL document CHEMBL1201862, “PubChem BioAssay data set” (2004).
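Exposure lasted 48 hours, with cells grown in 96-well plates and compounds tested at five concentrations. GI50 is the concentration that inhibits growth by half.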 Calls of active or inactive are those of the source. Rule as the data show it: active = GI50 up to about 1.1 µM and inactive = higher.

What was measured:
Experiment in all cases: inhibition of tumour cell growth, NCI panel, 48 h
[1] = test system: CAKI-1
[2] = test system: NCI-H23
[3] = test system: RPMI-8226
[4] = test system: SF-268
[5] = test system: SK-MEL-5
[6] = test system: HT-29
[7] = test system: MCF7
[8] = test system: MDA-MB-435
[9] = test system: UO-31
[10] = test system: OVCAR-5
[11] = test system: MDA-MB-231
[12] = test system: SK-OV-3
[13] = test system: 786-0
[14] = test system: HCT-116
[15] = test system: SN12C
[16] = test system: RXF 393
[17] = test system: NCI-H226
[18] = test system: SW-620
[19] = test system: SF-295
[20] = test system: A549

Measured: GI50

O=C1Oc2ccccc2C(=O)/C1=C/N1C(=O)N/C(=C\c2ccccc2O)C1=O
inactive: [1] 79.4 µM | [2] 59.8 µM | [3] 43 µM | [4] > 81.1 µM | [5] 44.6 µM | [6] 54.7 µM | [7] 61.1 µM | [8] > 79.3 µM | [9] 39 µM | [10] > 100 µM | [11] 36.9 µM | [12] > 62.7 µM | [13] 68.7 µM | [14] 36.6 µM | [15] 53.6 µM | [16] 37.5 µM | [17] 81.1 µM | [18] > 90.8 µM | [19] > 71 µM | [20] 58.9 µM

CCOC(=O)C12C(=O)CCN1CCc1ccccc1C2C (stereo not given)
inactive: [1] > 100 µM | [2] > 100 µM | [3] > 100 µM | [4] > 100 µM | [5] > 100 µM | [6] > 100 µM | [7] > 100 µM | [8] > 100 µM | [9] > 100 µM | [10] > 100 µM | [11] > 100 µM | [12] > 100 µM | [13] > 100 µM | [14] > 100 µM | [15] > 100 µM | [16] > 100 µM | [17] > 100 µM | [18] > 100 µM | [19] > 100 µM | [20] > 100 µM

O=S1(=O)c2cnccc2N=C(NCc2cccc3ccccc23)N1c1ccccc1
inactive: [1] > 100 µM | [2] 36.2 µM | [3] 13.6 µM | [4] > 100 µM | [5] > 95.9 µM | [6] > 100 µM | [7] 36.6 µM | [8] > 100 µM | [9] > 56.5 µM | [10] > 100 µM | [11] > 43 µM | [12] > 100 µM | [13] 15 µM | [14] 9.35 µM | [15] 27 µM | [16] > 43.9 µM | [17] > 100 µM | [18] > 100 µM | [19] 62.8 µM | [20] > 57.7 µM

CCCCCc1c(Cl)nc(Cl)nc1Cl
inactive: [1] 2.88 µM | [2] 3.18 µM | [3] 3.03 µM | [4] 11.1 µM | [5] 5.81 µM | [6] 3.59 µM | [7] 10.2 µM | [8] 2.76 µM | [9] 18.5 µM | [10] 12.7 µM | [11] 5.69 µM | [12] 10.5 µM | [13] 3.67 µM | [14] 3.82 µM | [15] 3.1 µM | [16] 8.41 µM | [17] 2 µM | [18] 3.63 µM | [19] 25.1 µM | [20] 39.7 µM

COc1ccc(CCNC(=O)Cc2ccccc2CO)cc1OC
inactive: [1] > 100 µM | [2] > 100 µM | [3] > 100 µM | [4] > 100 µM | [5] > 100 µM | [6] > 100 µM | [7] > 100 µM | [8] > 100 µM | [9] > 100 µM | [10] > 100 µM | [11] > 100 µM | [12] > 100 µM | [13] > 100 µM | [14] > 100 µM | [15] > 100 µM | [16] > 100 µM | [17] > 100 µM | [18] > 100 µM | [19] > 100 µM | [20] > 100 µM

O=C1C2=Nc3ccccc3C(O)N2c2ccccc21 (stereo not given)
inactive: [1] 48.4 µM | [2] 3.92 µM | [3] 53.8 µM | [4] 31.6 µM | [5] 1.95 µM | [6] 58.2 µM | [7] 11.1 µM | [8] 2.56 µM | [9] 46.8 µM | [10] 81.1 µM | [11] 14.9 µM | [12] 68.2 µM | [13] 36.6 µM | [14] > 83.4 µM | [15] 27.2 µM | [16] > 10 µM | [17] 27.8 µM | [18] > 100 µM | [19] 35.9 µM | [20] 32.8 µM

CC(=O)O[C@@H]1C[C@]2(C(=O)c3ccccc3)C(=O)C(=O)S[C@]12c1ccccc1
inactive: [1] 42.9 µM | [2] 45 µM | [3] 30.4 µM | [4] 34.4 µM | [5] 32.4 µM | [6] 67.9 µM | [7] 30 µM | [8] 29.2 µM | [9] 42.8 µM | [10] > 100 µM | [11] 58.1 µM | [12] 50 µM | [13] 35.5 µM | [14] 46.6 µM | [15] 35.8 µM | [16] 25.9 µM | [17] 52.6 µM | [18] 31.6 µM | [19] 65.9 µM | [20] 55.8 µM
